# Assay results reported in patent US5236929A, “Compound UCA1064-B” (Kyowa Hakko Kogyo Co., Ltd., priority 1991, dated 1993).
# Legend:
# [1] = tested on: Mouse mammary cancer SC-4; assay: Anti-tumor activity against mouse mammary cancer SC-4 in BALB/c nu/nu nude mice; format: in vivo; conditions: once a day, five days after start
# Procedure: Mouse mammary cancer SC-4 (8 mm^3) was subcutaneously implanted into BALB/c nu/nu nude mice (5-weeks-old, male) at ventral side using a trockar.
# After the volume of the tumor reached 100-300 mm^3, UCA1064-B was subcutaneously administered near the tumor at a dose of 15 mg/kg once a day for 4 days. UCA1064-B was administered in the form of a suspension, which was prepared by triturating 10 mg of UCA1064-B with 20 μl of Tween 80 and then suspending the compound in 0.3% carboxymethyl cellulose (CMC).
# For comparison, 100 mg/kg of cortisone was subcutaneously administered once a day for 5 days in a similar manner.
# Five days after the start of administration, the anti-tumor activity was determined as T/C (T: the volume of the tumor of the test group, C: the volume of the tumor of the control group).
# [2] = Solubility; format: physicochemical
# [3] = tested on: BALB 3T3/H-ras cells; assay: Growth inhibition against BALB 3T3 cells transformed by the oncogene H-ras (Giemsa staining); format: cell-based
# Procedure: (B) Growth Inhibition Against BALB 3T3 Cells Transformed by the Oncogene H-Ras (Hereinafter Referred to as BALB 3T3/H-Ras Cells)
# A BALB 3T3/H-ras cell suspension (3×10^4 cells/ml) prepared by suspending BALB 3T3/H-ras cells in a medium comprising DME medium (Nissui Pharmaceutical Co, Ltd.) and 10% fetal calf serum (hereinafter referred to as Medium A) was put into wells of a 96-well microtiter plate in an amount of 0.1 ml per well. After the plate was incubated at 37° C. for 20 hours in a CO2 -incubator, 0.1 ml of a sample of UCA1064-B appropriately diluted with Medium A was added to each well. The cells were further incubated at 37° C. for 72 hours in the CO2 -incubator. After the culture supernatant was removed, the residue was washed once with physiological saline and then treated with 0.1 ml of methanol for 10 minutes to fix the cells. […] After the staining solution was removed, the residue was washed once with 0.2 ml of water. Then, the dye was extracted with 0.2 ml of 0.1N hydrochloric acid and absorbance was measured at 620 nm with a microplate reader.
# [4] = tested on: Salmonella typhi ATCC9992; assay: Antibacterial and antifungal activity, agar dilution method; format: cell-based; conditions: Salmonella enterica, pH 7, read-out: Minimum Inhibitory Concentration (MIC)
# Procedure: (§1) The minimum inhibitory concentration (MIC) of UCA1064-B against various bacteria and fungi was determined by the agar dilution method using a medium (pH 7) prepared by dissolving 3 g of Bacto-Tryptone (Difco Laboratories), 3 g of meat extract, 1 g of yeast extract, 1 g of glucose and 16 g of agar in 1 liter of water.
# [5] = tested on: Bacillus subtilis No. 10707; assay: as above; format: cell-based; conditions: pH 7, read-out: Minimum Inhibitory Concentration (MIC)
# Procedure: as §1
# [6] = tested on: Candida krusei MTU12041; assay: as above; format: cell-based; conditions: Pichia kudriavzevii, pH 7, read-out: Minimum Inhibitory Concentration (MIC)
# Procedure: as §1
# [7] = tested on: Staphylococcus aureus ATCC6538P; assay: as above; format: cell-based; conditions: pH 7, read-out: Minimum Inhibitory Concentration (MIC)
# Procedure: as §1
# [8] = tested on: Klebsiella pneumoniae ATCC10031; assay: as above; format: cell-based; conditions: pH 7, read-out: Minimum Inhibitory Concentration (MIC)
# Procedure: as §1
# [9] = tested on: Enterococcus faecium ATCC10541; assay: as above; format: cell-based; conditions: pH 7, read-out: Minimum Inhibitory Concentration (MIC)
# Procedure: as §1
# [10] = tested on: Saccharomyces cerevisiae MTU09001; assay: as above; format: cell-based; conditions: pH 7, read-out: Minimum Inhibitory Concentration (MIC)
# Procedure: as §1
Compound,"T/C (tumor volume of test group / control group) ([1]; 15 mg/kg × 4, subcutaneous near the tumor, *P < 0.01 (Mann-Whitney U test))","Solubility ([2]; alcohol, acetone, ethyl acetate and chloroform)",Solubility ([2]; water and hexane),"IC50 ([3]; Mus musculus, BALB/3T3, 72 hours, 37° C.)",growth of cancer cells (conclusion in words) ([3]; summary of the results shown (Tables 2 and 3)),MIC [4],MIC [5],MIC [6],MIC [7],MIC [8],MIC [9],MIC [10],"T/C (tumor volume of test group / control group) ([1]; 100 mg/kg × 5, subcutaneous, **P < 0.05 (Mann-Whitney U test))"
CC(C)C(C)CCC(C)C1CCN=C2C3=C(CCC21C)C1(C)CCC(O)CC1CC3 (stereo not shown) [UCA1064-B],0.49,"soluble in alcohol, acetone, ethyl acetate and chloroform",insoluble in water and hexane,3.5 µg/mL,inhibits the growth of cancer cells,> 100 µg/mL,20 µg/mL,0.78 µg/mL,20 µg/mL,> 100 µg/mL,40 µg/mL,0.39 µg/mL,–
"C[C@]12CCC(=O)C=C1CC[C@@H]1[C@@H]2C(=O)C[C@@]2(C)[C@H]1CC[C@]2(O)C(=O)CO [Cortisone, reference compound]",–,–,–,–,–,–,–,–,–,–,–,–,0.39
